Assay results taken from publication PMC7274078, “Brain Endothelial Cells Regulate Glucagon-Like Peptide 1 Entry Into the Brain via a Receptor-Mediated Process” (Frontiers in Physiology, 2020).

Experiments:
[1] = test system: Rat brain microvascular endothelial cells (RBMECs); experiment: Endothelial cell uptake of GLP-1-FAM; assay type: cell-based
Experimental: Rat brain microvascular endothelial cells (RBMECs; Cell Applications, San Diego, CA, United States) were cultured on a cover slip in rat brain endothelial cell growth medium. After reaching confluency, cells were pre-treated with vehicle (PSS buffer), exendin 9-39 (10 nM) or H89 (Sigma-Aldrich, St. Louis, MO, United States) (10 μM) for 30 min or forskolin (Sigma-Aldrich, St. Louis, MO, United States) (10 μM) for 5 min. Cells were then incubated with GLP-1-FAM at either 10, 100 or 1,000 pM for 3 min at 37°C. DAPI was used to stain the nucleus. After fixation and washing three times with cold TBST (5 min each time), cell images were captured using confocal microscope and fluorescence intensity measured using ImageJ software^1. FAM signal from surface binding of FAM was examined by incubating cells with GLP-1-FAM at 4 or 37°C for 3 min, or free FAM (10, 100, and 1,000 pM) at 37°C for 3 min.
FIGURE 5 GLP-1 uptake by RBMECs is GLP-1 receptor and PKA dependent. RBMECs were pretreated with vehicle (PSS buffer, A,E,I), Exendin 9-39 (10 nM, B,F,J) or H89 (10 μM, C,G,K) for 30 min. Cells were then incubated with GLP-1-FAM at 10, 100 pM or 1 nM for 3 min. DAPI was used to stain the nucleus. Images were captured using confocal microscope. Fluorescence density was analyzed using ImageJ. (D,H,L) Quantitative analysis (n = 3, *p < 0.01, vs. vehicle, Student’s t test). GLP-1R – GLP-1 receptor.
FIGURE 6 cAMP agonist increases GLP-1 uptake by RBMECs. (A) RBMECs were incubated with GLP-1-FAM at 10 pM for 3 min with or without 10 μM forskolin. DAPI was used to stain the nucleus. Images was captured using confocal microscope. Fluorescence density was analyzed using ImageJ. (B) quantitative analysis of the images (n = 6, *p < 0.05, vs. vehicle, Student’s t test).

[2] = test system: RBMEC and astrocyte barrier; experiment: Trans-endothelial GLP-1 transport (Transwell artificial BBB); assay type: in vitro ADME, rat; conditions: exendin-(9-39) 100 nM, 10 min pre-treatment and during transport; GLP-1-FAM 100 pM; n = 7, p < 0.01
Experimental: The trans-endothelial GLP-1 transport was examined using a Transwell system that mimics the BBB in that RBMECs were co-cultured with astrocytes as illustrated in Figure 7A and previously described ([Gaillard et al., 2001]). Briefly, astrocytes (Thermo Fisher Scientific, Waltham, MA, United States) were seeded on the bottom and RBMECs were then seeded onto the top of the Transwell insert (6.5 mm diameter, 1 μm pore size, polyester membrane; Corning, Corning, NY, United States). Trans-endothelial electrical resistance was monitored using a volt-ohmmeter (EVOM; WPI, Sarasota, FL, United States) and EndOhm chamber (EndOhm; WPI). When the trans-endothelial electrical resistance reached its peak, the insert with double cell layers was washed twice at 37°C with PBS buffer. […] The amount of GLP-1-FAM or inulin-FITC transported to the lower chamber was determined by measuring FAM and FITC fluorescence in the lower chamber at 5, 10, and 30 min. Inulin-FITC transport was used to correct for paracellular transport and the amount of trans-endothelial transport of GLP-1-FAM was calculated using the formula:
Transcellular transport (%)=Fluorescence [FAM]/Reference [FAM]×100−Fluorescence [FITC]/Reference [FITC]×100
Reference refers to fluorescence in the lower chamber at the specified time point when the Transwell inserts had no cells seeded. To determine if this trans-endothelial transport is dose-dependent, 10, 100, and 1,000 pM GLP-1-FAM or inulin-FITC (with DDP-4 inhibitor) was loaded into the upper chamber, the amount of GLP-1-FAM or inulin-FITC in the lower chamber was determined at 10 min, and trans-endothelial transport of GLP-1 was calculated.
FIGURE 7 Trans-endothelial transport of GLP-1 is a GLP-1 receptor-mediated process. […] GLP-1-FAM or inulin-FITC transport to the lower chamber was determined by measuring FAM and FITC fluorescence in the lower chamber. […]

GLP-1 receptor = biological target: T1, GLP-1 receptor (Rattus norvegicus, UniProt P32301); experiment: Effect of GLP-1 receptor antagonist infusion on brain uptake of labeled GLP-1 or exendin-4; assay type: in vivo; conditions: exendin-(9-39) 30 nmol/kg/min for 20 min
T1 construct: from tissue; host or cells: live rat; brain regions (cerebellum, cortex, hippocampus, hypothalamus, brain stem) and brain microvasculature
T1 sequence (P32301 22-463): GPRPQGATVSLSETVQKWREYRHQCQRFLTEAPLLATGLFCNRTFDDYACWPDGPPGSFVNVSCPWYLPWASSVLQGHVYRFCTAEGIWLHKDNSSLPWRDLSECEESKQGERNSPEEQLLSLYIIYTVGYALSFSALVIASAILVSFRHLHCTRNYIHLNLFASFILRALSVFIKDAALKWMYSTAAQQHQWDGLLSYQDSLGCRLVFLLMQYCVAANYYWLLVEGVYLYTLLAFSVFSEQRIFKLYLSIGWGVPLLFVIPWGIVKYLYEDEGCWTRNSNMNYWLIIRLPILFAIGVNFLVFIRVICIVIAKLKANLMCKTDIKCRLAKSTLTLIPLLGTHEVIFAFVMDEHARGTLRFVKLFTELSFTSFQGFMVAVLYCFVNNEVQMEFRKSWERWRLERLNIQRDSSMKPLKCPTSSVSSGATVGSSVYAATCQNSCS
Experimental: Rats received a systemic infusion of either saline or exendin-(9-39) (GLP-1 receptor antagonist, 30 nmol/kg/min, Abcam, Cambridge, United Kingdom) via the jugular vein catheter for 20 min (Figure 1A). In the last 10 min, rats also received 30 pmol/kg/min of either GLP-1-FAM (AnaSpec, Fremont, CA, United States) or exendin-4-FAM (AnaSpec, Fremont, CA, United States) together with Dextran-TRITC (Sigma-Aldrich, St. Louis, MO, United States) (70 kD, vascular space marker, 30 pmol/kg/min). […] After collecting plasma samples, rats were sacrificed via anesthetic overdose and various brain regions (cerebellum, cortex, hippocampus, hypothalamus, and brain stem) collected, homogenized and lysed in lysis buffer. Fluorescence from TRITC and FAM were measured in both plasma and brain lysates. Protein concentrations were determined in the brain lysates. Brain uptake of GLP-1-FAM and exendin-4-FAM were calculated using the following formula:
Tissue fluorescence [FAM]/Tissue weight (μg)−TissueFluorescence [TRITC]/Weight(μg)/PlasmaFluorescence [TRITC]/200(μL)×Plasma Fluorescence [FAM]/200μL
FIGURE 1 GLP-1 and GLP-1 analog exendin-4 enter various brain regions via GLP-1 receptor-mediated process. (A) Protocol. […]

[3] = pre-treatment 30 min with exendin 9-39 10 nM or H89 10 μM, GLP-1-FAM 10, 100 or 1,000 pM for 3 min at 37°C, n = 3, p < 0.01 vs vehicle

Row | effect on amount of GLP-1-FAM fluorescence in various brain regions (GLP-1 receptor; GLP-1-FAM 30 pmol/kg/min in last 10 min, n = 7, p < 0.05) | effect on exendin-4-FAM fluorescence in various brain regions (GLP-1 receptor; exendin-4-FAM 30 pmol/kg/min in last 10 min, n = 6, p < 0.05) | Molecule | effect on RBMEC uptake of GLP-1-FAM ([1]; forskolin 10 μM, 5 min, GLP-1-FAM 10 pM for 3 min, n = 6, p < 0.05 vs vehicle) | effect on RBMEC uptake of GLP-1-FAM [1, 3] | effect on trans-endothelial transport of labeled GLP-1 [2]
1 |  |  | C=C[C@@]1(C)CC(=O)[C@]2(O)[C@@]3(C)[C@@H](O)CCC(C)(C)[C@@H]3[C@H](O)[C@H](OC(C)=O)[C@@]2(C)O1 [forskolin] | significantly enhanced |  | 
2 |  |  | O=S(=O)(NCCNC/C=C/c1ccc(Br)cc1)c1cccc2cnccc12 [H89] |  | blunted | 
3 | markedly decreased | almost completely abolished | exendin-(9-39) |  | blunted | inhibited
